From the NIST ThermoML archive (doi:10.1016/j.fluid.2017.12.010)

Assay: xn = mol fraction of the nth substance listed
Details: Liquid, Vibrating tube method

CCCCCCCCCCCC [dodecane] + CCCCCCCCCC
Details | mass density [kg/m3]
342.94 K, 80000 kPa, x2 = 0.2297 | 765
342.94 K, 80000 kPa, x2 = 0.6433 | 758
342.94 K, 100000 kPa, x2 = 0.2297 | 774
342.94 K, 100000 kPa, x2 = 0.6433 | 768
342.95 K, 100 kPa, x2 = 0.7841 | 698
342.95 K, 1000 kPa, x2 = 0.7841 | 699
342.96 K, 5000 kPa, x2 = 0.7841 | 703
342.97 K, 10000 kPa, x2 = 0.7841 | 708
342.97 K, 20000 kPa, x2 = 0.7841 | 717
342.98 K, 30000 kPa, x2 = 0.7841 | 724
342.98 K, 40000 kPa, x2 = 0.7841 | 732
342.99 K, 60000 kPa, x2 = 0.7841 | 744
343 K, 80000 kPa, x2 = 0.7841 | 756
343 K, 99990 kPa, x2 = 0.7841 | 766
352.58 K, 100 kPa, x2 = 0 | 707
352.58 K, 1000 kPa, x2 = 0 | 708
352.58 K, 5000 kPa, x2 = 0 | 712
352.58 K, 10000 kPa, x2 = 0 | 716
352.58 K, 20000 kPa, x2 = 0 | 725
352.58 K, 30000 kPa, x2 = 0 | 733
352.58 K, 40000 kPa, x2 = 0 | 740
352.58 K, 50000 kPa, x2 = 0 | 747
352.58 K, 60000 kPa, x2 = 0 | 753
352.58 K, 70000 kPa, x2 = 0 | 759
352.58 K, 80000 kPa, x2 = 0 | 764
352.58 K, 90000 kPa, x2 = 0 | 769
352.58 K, 100000 kPa, x2 = 0 | 774
352.73 K, 100 kPa, x2 = 0.2297 | 702
352.74 K, 1000 kPa, x2 = 0.2297 | 703
352.74 K, 5000 kPa, x2 = 0.2297 | 707
352.75 K, 10000 kPa, x2 = 0.2297 | 712
352.75 K, 20000 kPa, x2 = 0.2297 | 721
352.75 K, 30000 kPa, x2 = 0.2297 | 729
352.75 K, 40000 kPa, x2 = 0.2297 | 736
352.76 K, 60000 kPa, x2 = 0.2297 | 749
352.76 K, 80000 kPa, x2 = 0.2297 | 760
352.76 K, 100000 kPa, x2 = 0.2297 | 770
352.78 K, 100 kPa, x2 = 0.6433 | 694
352.78 K, 1000 kPa, x2 = 0.6433 | 695
352.78 K, 5000 kPa, x2 = 0.6433 | 699
352.78 K, 10000 kPa, x2 = 0.6433 | 704
352.78 K, 20000 kPa, x2 = 0.6433 | 713
352.78 K, 30000 kPa, x2 = 0.6433 | 721
352.78 K, 40000 kPa, x2 = 0.6433 | 729
352.79 K, 5000 kPa, x2 = 0.4436 | 703
352.79 K, 60000 kPa, x2 = 0.6433 | 742
352.79 K, 79990 kPa, x2 = 0.6433 | 754
352.79 K, 100000 kPa, x2 = 0.6433 | 764
352.8 K, 1000 kPa, x2 = 0.4436 | 699
352.8 K, 10000 kPa, x2 = 0.4436 | 708
352.8 K, 20000 kPa, x2 = 0.4436 | 717
352.81 K, 100 kPa, x2 = 0.4436 | 698
352.81 K, 1000 kPa, x2 = 0.7841 | 692
352.81 K, 30000 kPa, x2 = 0.4436 | 725
352.81 K, 40000 kPa, x2 = 0.4436 | 733
352.81 K, 60000 kPa, x2 = 0.4436 | 746
352.81 K, 99990 kPa, x2 = 0.4436 | 767
352.82 K, 100 kPa, x2 = 0.7841 | 691
352.82 K, 80000 kPa, x2 = 0.4436 | 757
352.83 K, 5000 kPa, x2 = 0.7841 | 696
352.84 K, 10000 kPa, x2 = 0.7841 | 701
352.84 K, 20000 kPa, x2 = 0.7841 | 711
352.85 K, 30000 kPa, x2 = 0.7841 | 719
352.85 K, 40000 kPa, x2 = 0.7841 | 726
352.85 K, 60000 kPa, x2 = 0.7841 | 740
352.85 K, 80000 kPa, x2 = 0.7841 | 751
352.85 K, 100000 kPa, x2 = 0.7841 | 762
362.48 K, 5000 kPa, x2 = 0 | 704
362.48 K, 10000 kPa, x2 = 0 | 709
362.48 K, 20000 kPa, x2 = 0 | 718
362.48 K, 30000 kPa, x2 = 0 | 726
362.48 K, 50000 kPa, x2 = 0 | 741
362.48 K, 80000 kPa, x2 = 0 | 759
362.48 K, 90000 kPa, x2 = 0 | 764
362.49 K, 100 kPa, x2 = 0 | 699
362.49 K, 1000 kPa, x2 = 0 | 700
362.49 K, 40000 kPa, x2 = 0 | 734
362.49 K, 60000 kPa, x2 = 0 | 747
362.49 K, 70000 kPa, x2 = 0 | 753
362.49 K, 100000 kPa, x2 = 0 | 769
362.57 K, 100 kPa, x2 = 0.2297 | 695
362.57 K, 1000 kPa, x2 = 0.2297 | 696
362.58 K, 5000 kPa, x2 = 0.2297 | 700
362.58 K, 10000 kPa, x2 = 0.2297 | 705
362.58 K, 20000 kPa, x2 = 0.2297 | 714
362.58 K, 30000 kPa, x2 = 0.2297 | 722
362.59 K, 40000 kPa, x2 = 0.2297 | 730
362.59 K, 60000 kPa, x2 = 0.2297 | 743
362.59 K, 80000 kPa, x2 = 0.2297 | 755
362.59 K, 100000 kPa, x2 = 0.2297 | 765
362.61 K, 100 kPa, x2 = 0.4436 | 690
362.61 K, 1000 kPa, x2 = 0.4436 | 691
362.62 K, 100 kPa, x2 = 0.6433 | 686
362.62 K, 1000 kPa, x2 = 0.6433 | 687
362.62 K, 5000 kPa, x2 = 0.4436 | 696
362.62 K, 5000 kPa, x2 = 0.6433 | 691
362.62 K, 10000 kPa, x2 = 0.4436 | 701
362.62 K, 10000 kPa, x2 = 0.6433 | 697
362.62 K, 20000 kPa, x2 = 0.4436 | 710
362.62 K, 30000 kPa, x2 = 0.4436 | 719
362.62 K, 40000 kPa, x2 = 0.4436 | 726
362.62 K, 60000 kPa, x2 = 0.4436 | 740
362.62 K, 80000 kPa, x2 = 0.4436 | 752
362.63 K, 20000 kPa, x2 = 0.6433 | 706
362.63 K, 30000 kPa, x2 = 0.6433 | 715
362.63 K, 40000 kPa, x2 = 0.6433 | 722
362.63 K, 60000 kPa, x2 = 0.6433 | 736
362.63 K, 80000 kPa, x2 = 0.6433 | 748
362.63 K, 99990 kPa, x2 = 0.6433 | 758
362.63 K, 100000 kPa, x2 = 0.4436 | 762
362.64 K, 100 kPa, x2 = 0.7841 | 682
362.64 K, 1000 kPa, x2 = 0.7841 | 683
362.65 K, 5000 kPa, x2 = 0.7841 | 688
362.65 K, 10000 kPa, x2 = 0.7841 | 693
362.66 K, 20000 kPa, x2 = 0.7841 | 703
362.66 K, 30000 kPa, x2 = 0.7841 | 712
362.66 K, 40000 kPa, x2 = 0.7841 | 719
362.66 K, 60000 kPa, x2 = 0.7841 | 733
362.66 K, 80000 kPa, x2 = 0.7841 | 745
362.66 K, 100010 kPa, x2 = 0.7841 | 756
